In US6376518B1, “Acyl derivatives of 4-demethylpenclomedine, use thereof and preparation thereof” (Southern Research Institute, priority 1999, dated 2002):
Like-named read-outs stand apart in the source and are kept apart here.

Legend:
P388/BCNU leukemia = assay: Antitumor activity against IP-implanted P388/BCNU leukemia in mice; conditions: P388/BCNU; for MEDIAN DAY OF DEATH: dying mice only
P388/0 leukemia = conditions: P388/0; for MEDIAN DAY OF DEATH: dying mice only
P388/CPA leukemia = assay: Antitumor activity against IP-implanted P388/CPA leukemia in mice; format: in vivo, murine; conditions: P388/CPA; for MEDIAN DAY OF DEATH: dying mice only
human MX-1 mammary tumor [1] = assay: In vivo antitumor activity vs i.c.-implanted human MX-1 mammary tumor xenograft in athymic mice; conditions: ic MX-1; for Median % ILS (dying mice only) / Tumor-Free-Surv/Total: Days 1-5
human MX-1 mammary tumor [2] = assay: In vivo antitumor activity vs s.c.-implanted human MX-1 mammary tumor xenograft in athymic mice; conditions: sc MX-1, Days 12-16
P388/L-PAM leukemia = conditions: for MEDIAN DAY OF DEATH: dying mice only
[3] = IP 20.0 mg/kg/dose, Q1D × 1 (1)
[4] = IP 30.0 mg/kg/dose, Q1D × 1 (1)
[5] = IP 175.0 mg/kg/dose, Q1D × 1 (1)
[6] = IP 265.0 mg/kg/dose, Q1D × 1 (1)
[7] = optimal doses (LD10 or less), schedule QD1-5, administered LP.
[8] = P388/L-PAM, IP 60.0 mg/kg/dose, Q1D × 5 (1)
[9] = P388/L-PAM, IP 90.0 mg/kg/dose, Q1D × 5 (1)
[10] = P388/L-PAM, IP 135.0 mg/kg/dose, Q1D × 5 (1)
[11] = IP 60.0 mg/kg/dose, Q1D × 5 (1)
[12] = IP 90.0 mg/kg/dose, Q1D × 5 (1)
[13] = IP 135.0 mg/kg/dose, Q1D × 5 (1)
[14] = P388/L-PAM, IP 15.0 mg/kg/dose, Q1D × 1 (1)
[15] = P388/L-PAM, IP 20.0 mg/kg/dose, Q1D × 1 (1)

## O=NN(CCCl)C(=O)NCCCl [BCNU (carmustine), carmustine]
P388/BCNU leukemia; [3]
  50-DAY SURV/TOTAL: 0/6
  % ILS: 0%
  APPROX. NET LOG10 CHANGE IN TUMOR BURDEN AT END OF Rx: 0
  MEDIAN DAY OF DEATH: 9.0
P388/BCNU leukemia; [4]
  50-DAY SURV/TOTAL: 0/6
  % ILS: −6%
  APPROX. NET LOG10 CHANGE IN TUMOR BURDEN AT END OF Rx: +0.4
  MEDIAN DAY OF DEATH: 8.5
P388/0 leukemia; [3]
  50-DAY SURV/TOTAL: 3/6
  APPROX. NET LOG10 CHANGE IN TUMOR BURDEN AT END OF Rx: ca −8.8
  MEDIAN DAY OF DEATH: 27.0
P388/0 leukemia; [4]
  50-DAY SURV/TOTAL: 6/6

## O=P1(N(CCCl)CCCl)NCCCO1 (centres unmarked) [CPA (cyclophosphamide), cyclophosphamide]
P388/CPA leukemia; [5]
  50-DAY SURV/TOTAL: 0/6
  % ILS: +9%
  APPROX. NET LOG10 CHANGE IN TUMOR BURDEN AT END OF Rx: −0.6
  MEDIAN DAY OF DEATH: 12.0
P388/CPA leukemia; [6]
  50-DAY SURV/TOTAL: 0/6
  % ILS: +27%
  APPROX. NET LOG10 CHANGE IN TUMOR BURDEN AT END OF Rx: −1.7
  MEDIAN DAY OF DEATH: 14.0
P388/0 leukemia; [5]
  50-DAY SURV/TOTAL: 1/6
  APPROX. NET LOG10 CHANGE IN TUMOR BURDEN AT END OF Rx: ca −8.8
  MEDIAN DAY OF DEATH: 30.0
P388/0 leukemia; [6]
  50-DAY SURV/TOTAL: 6/6

## COc1nc(C(Cl)(Cl)Cl)c(Cl)c(OC(=O)COC(C)=O)c1Cl [DM-AA-PEN]
Human MX-1 mammary tumor [1]; IP 135 mg/kg/dose
  Median % ILS (dying mice only): +67%
  Tumor-Free-Surv/Total: 0/5
Human MX-1 mammary tumor [1]; oral (gavage) 135 mg/kg/dose
  Tumor-Free-Surv/Total: 2/5

## C=CC(=O)Oc1c(Cl)c(OC)nc(C(Cl)(Cl)Cl)c1Cl [DM-AC-PEN]
Human MX-1 mammary tumor [2]; IP 60 mg/kg/dose
  T-C: 30.0 days
  Tumor-Free-Surv/Total: 1/5
Human MX-1 mammary tumor [1]; IP 60 mg/kg/dose
  Median % ILS (dying mice only): +55%

## COc1nc(C(Cl)(Cl)Cl)c(Cl)c(OC(=O)CBr)c1Cl [DM-BA-PEN]
Human MX-1 mammary tumor [2]; IP 135 mg/kg/dose
  T-C: >41.0 days
  Tumor-Free-Surv/Total: 2/5

## COc1nc(C(Cl)(Cl)Cl)c(Cl)c(OC(=O)c2ccc(CCl)cc2)c1Cl [DM-CMB-PEN]
Human MX-1 mammary tumor [1]; IP 90 mg/kg/dose
  Median % ILS (dying mice only): +73%
  Tumor-Free-Surv/Total: 0/5

## COc1nc(C(Cl)(Cl)Cl)c(Cl)c(OC(=O)C(Cl)Cl)c1Cl [DM-DCA-PEN]
Human MX-1 mammary tumor [2]; IP 135 mg/kg/dose
  Tumor-Free-Surv/Total: 2/5

## COc1nc(C(Cl)(Cl)Cl)c(Cl)c(OC(=O)CI)c1Cl [DM-IA-PEN]
Human MX-1 mammary tumor [2]; IP 60 mg/kg/dose
  Dose (mg/kg) with observed lethality level: 60 (LD40)
  Tumor-Free-Surv/Total: 1/5

## COc1nc(C(Cl)(Cl)Cl)c(Cl)c(OC(=O)c2ccncc2)c1Cl [DM-IN-PEN]
Human MX-1 mammary tumor [2]; IP 90 mg/kg/dose
  Dose (mg/kg) with observed lethality level: 90 (LD20)
  Tumor-Free-Surv/Total: 3/5

## COc1nc(C(Cl)(Cl)Cl)c(Cl)c(OC(=O)c2ccc([N+](=O)[O-])cc2)c1Cl [DM-NB-PEN]
Human MX-1 mammary tumor [2]; IP 135 mg/kg/dose
  Tumor-Free-Surv/Total: 5/5

## CCCCCCCC(=O)Oc1c(Cl)c(OC)nc(C(Cl)(Cl)Cl)c1Cl [DM-O-PEN]
Human MX-1 mammary tumor [1]
  activity against i.c.-implanted tumor in comparison to PEN and DM-PEN (in words): significant activity
Human MX-1 mammary tumor [1]; IP 90 mg/kg/dose
  Tumor-Free-Surv/Total: 0/5
Human MX-1 mammary tumor [1]; [7]
  Survivors: 0/5

## COc1nc(C(Cl)(Cl)Cl)c(Cl)c(O)c1Cl [DM-PEN, 3,5-dichloro-2-methoxy-4-hydroxy-6-(trichloromethyl)pyridine]
P388/L-PAM leukemia; [8]
  50-DAY SURV/TOTAL: 0/6
  % ILS: −4%
  APPROX. NET LOG10 CHANGE IN TUMOR BURDEN AT END OF Rx: +1.6
P388/L-PAM leukemia; [9]
  50-DAY SURV/TOTAL: 0/6
  % ILS: −8%
  APPROX. NET LOG10 CHANGE IN TUMOR BURDEN AT END OF Rx: +1.6
  MEDIAN DAY OF DEATH: 13.0
P388/L-PAM leukemia; [10]
  50-DAY SURV/TOTAL: 0/6
  % ILS: −4%
  APPROX. NET LOG10 CHANGE IN TUMOR BURDEN AT END OF Rx: +1.6
  Toxicity / lethality level at the dosage (LD): LD33
P388/L-PAM leukemia; mouse, in vivo
  activity in the P388/L-PAM tumor model (in words): none of the three showed significant activity
P388/CPA leukemia; [11]
  50-DAY SURV/TOTAL: 0/6
  % ILS: +22%
  APPROX. NET LOG10 CHANGE IN TUMOR BURDEN AT END OF Rx: +0.9
P388/CPA leukemia; [12]
  50-DAY SURV/TOTAL: 0/6
  % ILS: +54%
  APPROX. NET LOG10 CHANGE IN TUMOR BURDEN AT END OF Rx: −1.1
  MEDIAN DAY OF DEATH: 17.0
P388/CPA leukemia; [13]
  50-DAY SURV/TOTAL: 0/6
  % ILS: +31%
  APPROX. NET LOG10 CHANGE IN TUMOR BURDEN AT END OF Rx: +0.3
P388/BCNU leukemia; [11]
  50-DAY SURV/TOTAL: 0/6
  % ILS: +33%
  APPROX. NET LOG10 CHANGE IN TUMOR BURDEN AT END OF Rx: +0.8
  MEDIAN DAY OF DEATH: 12.0
P388/BCNU leukemia; [12]
  50-DAY SURV/TOTAL: 0/6
  % ILS: +55%
  APPROX. NET LOG10 CHANGE IN TUMOR BURDEN AT END OF Rx: −0.8
  MEDIAN DAY OF DEATH: 14.0
P388/BCNU leukemia; [13]
  50-DAY SURV/TOTAL: 0/6
  % ILS: +88%
  APPROX. NET LOG10 CHANGE IN TUMOR BURDEN AT END OF Rx: −3.1
  Toxicity / lethality level at the dosage (LD): LD17
  MEDIAN DAY OF DEATH: 17.0
P388/0 leukemia; [11]
  50-DAY SURV/TOTAL: 0/6
  % ILS: +45%
  APPROX. NET LOG10 CHANGE IN TUMOR BURDEN AT END OF Rx: −0.8
  MEDIAN DAY OF DEATH: 16.0
P388/0 leukemia; [12]
  50-DAY SURV/TOTAL: 0/6
  % ILS: +72%
  APPROX. NET LOG10 CHANGE IN TUMOR BURDEN AT END OF Rx: −3.1
  MEDIAN DAY OF DEATH: 19.0
P388/0 leukemia; [13]
  50-DAY SURV/TOTAL: 0/6
  % ILS: −23%
  Toxicity / lethality level at the dosage (LD): TOXIC
  MEDIAN DAY OF DEATH: 8.5
Human MX-1 mammary tumor [1]; [7]
  Median % ILS (based on dying mice only): 60%
  Survivors: 0/5

## COc1nc(C(Cl)(Cl)Cl)c(Cl)c(OC(=O)c2c(Cl)cc(Cl)cc2Cl)c1Cl [DM-TCB-PEN]
Human MX-1 mammary tumor [1]; IP 135 mg/kg/dose
  Median % ILS (dying mice only): +92%
  Tumor-Free-Surv/Total: 1/5

## N[C@@H](Cc1ccc(N(CCCl)CCCl)cc1)C(=O)O [L-PAM (melphalan), melphalan]
P388/L-PAM leukemia; [14]
  50-DAY SURV/TOTAL: 0/6
  % ILS: +14%
  APPROX. NET LOG10 CHANGE IN TUMOR BURDEN AT END OF Rx: −1.8
  MEDIAN DAY OF DEATH: 18.0
P388/L-PAM leukemia; [15]
  50-DAY SURV/TOTAL: 0/6
  % ILS: +14%
  APPROX. NET LOG10 CHANGE IN TUMOR BURDEN AT END OF Rx: −1.8
  MEDIAN DAY OF DEATH: 18.0
P388/0 leukemia; IP 15.0 mg/kg/dose, Q1D × 1 (1)
  50-DAY SURV/TOTAL: 6/6
P388/0 leukemia; [3]
  50-DAY SURV/TOTAL: 6/6
  % ILS: +209%
  APPROX. NET LOG10 CHANGE IN TUMOR BURDEN AT END OF Rx: ca −8.8
  MEDIAN DAY OF DEATH: 34.0
